Experiment [1] has as its system HDAC (HeLa cell nuclear extract, a mosaic of HDAC enzymes). Briefly: In vitro fluorescent histone deacetylase (HDAC) activity assay. The format is biochemical. The following applies: HeLa cell nuclear extract as HDAC source, 50 μM substrate, 10 min at room temperature (in some assays recombinant HDAC8); read-out: IC50 HDAC Inhibition. Here is the method: Histone deacetylase (HDAC) activity assays were performed using the HDAC fluorescent activity assay/drug discovery kit (Biomol Research Laboratories, Plymouth Meeting, Pa.) essentially according to the manufacturer's instructions. The included HeLa cell nuclear extract, which contains a mosaic of HDAC enzymes and other nuclear factors, was used as the source of HDAC activity. The final substrate concentration in the assay mixture was 50 μM. The reaction was allowed to proceed for 10 min at room temperature before stopping the reaction. Test compounds were prepared as 20 mM stock solutions in DMSO (Molecular Biology grade, Sigma-Aldrich Co., St. Louis, Mo.) and stored at −70° C. Serial dilutions of test compounds were prepared in assay buffer immediately prior to testing. DMSO was determined in a separate trial to have no significant effect on the activity of this assay at concentrations up to 5%; the final DMSO concentration in the wells was no more than 2% and therefore DMSO effects were safely neglected. Assays were performed in white polystyrene 96-well half-area assay plates (Corning, Corning, N.Y.) and measured on a Wallace 1420 fluorescent plate reader (Wallac Oy, Turku, Finland) with an excitation wavelength of 355 nm, an emission wavelength of 460 nm, and a 1 sec signal averaging time.
In some assays recombinant HDAC8 (Biomol) was used as the source of the enzyme activity; here the final substrate concentration was 250 μM, the final concentration of HDAC8 was 0.02 u/μL and the reaction was allowed to proceed at 37° C. for 1 h before stopping. For all curves, IC50 values were calculated with the GraFit curve-fitting program (Erithacus, Horley, Surrey, UK).

The next experiment deals with MCF7 cells. Briefly: Whole cell cytotoxicity assay: Sulforhodamine B. The format is cell-based. The following applies: Homo sapiens, 48 hours with drug, Sulforhodamine B staining. Here is the method:
Whole Cell Cytotoxicity Assay:Sulforhodamine B
The following procedure can be found on the Developmental Therapeutics Program NCI/NIH web site at http://dtp.nci.nih.gov/brancehes/btb/ivclsp.html.
1. Human tumor cell lines of HT29, A549 and MCF7 are grown in DMEM containing 10% fetal bovine serum and 2 mM L-glutamine. Cells are plated in a 96 well plate at a density of 5000 cells per well in 100 μL of growth medium and incubated at 37° C., 5% CO2, for 24 hours prior to the addition of experimental compounds.
2. Experimental drugs are solubilized in DMSO for a final concentration of 20 mM immediately prior to use. Drugs are further diluted in growth media for a total of nine drug concentrations and a growth control. At the 24-hour time point, one plate of cells is fixed in situ with TCA as a measurement of the cell population at time zero, or the time of drug addition.
3. The plates are further incubated with drug for an additional 48 hours.
4. The cells are fixed in situ by gently aspirating off the culture media and then adding 50 μL of ice cold 10% TCA per well and incubated at 4° C. for 60 minutes. The plates are washed with tap water five times and allowed to air dry for 5 minute.
5. 50 μl of a 0.4% (w/v) Sulforhodamine B solution in 1% (v/v) acetic acid is added per well and incubated for 30 minutes at room temperature.
6. Following staining, plates are washed five times with 1% acetic acid to remove any unbound dye and then allowed to air dry for 5 minutes.
7. Stain is solubilized with 100 μL of 10 mM Tris pH 10.5 per well and placed on an orbital rotator for 5 minutes.
8. Absorbance is read at 570 nm.

Usually IC50 stands for the concentration at which inhibition is half-maximal. Usually GI50 stands for the concentration at which growth is held to half of that of the control. A high value points to less potent growth inhibition. Take `O=C(NO)c1cnc(N2CCCN(S(=O)(=O)c3ccc4ccccc4c3)CC2)s1` [Example 2, 1-(2-naphthylsulfonyl)-4-(5-hydroxyaminocarbonylthiazol-2-yl)-1,4-diazepane]: the IC50 in experiment [1] is 5.9 µM. In addition, growth in the experiment with MCF7 cells was halved (GI50) at 10 µM.
For `O=C(/C=C/c1cnc(N2CCN(S(=O)(=O)c3ccc4ccccc4c3)CC2)s1)NO` [Example 4] the same measures were 0.045 µM and 0.7 µM.
For `O=C(/C=C/c1cnc(N2CCN(S(=O)(=O)c3ccccc3)CC2)s1)NO` [Example 4b] the same measures were 0.44 µM and 3 µM.
In the same order, the values of `COc1ccc(S(=O)(=O)N2CCN(c3ncc(/C=C/C(=O)NO)s3)CC2)cc1OC` [Example 4c] are 0.16 µM and 4 µM.
Consider `COc1ccc(S(=O)(=O)N2CCN(c3ncc(/C=C/C(=O)NO)s3)CC2)cc1` [Example 4d], for which, in experiment [1], the IC50 was determined as 0.4 µM. The molecule also showed a GI50 with MCF7 cells of 1 µM.
Take `O=C(/C=C/c1cnc(N2CCN(S(=O)(=O)c3ccc(OC(F)(F)F)cc3)CC2)s1)NO` [Example 4e]: in experiment [1], the IC50 came out at 3.24 µM. This molecule also returned a GI50 in the experiment with MCF7 cells of 6 µM.
For `Cc1ccc(S(=O)(=O)N2CCN(c3ncc(/C=C/C(=O)NO)s3)CC2)cc1` [Example 4f] the same measures were 0.55 µM and 2 µM.
For `O=C(/C=C/c1cnc(N2CCN(S(=O)(=O)c3ccc(C(F)(F)F)cc3)CC2)s1)NO` [Example 4g] the same measures were 14.5 µM and 3 µM.
For `O=C(/C=C/c1cnc(N2CCN(S(=O)(=O)c3ccc([N+](=O)[O-])cc3)CC2)s1)NO` [Example 4h] the same measures were 1.63 µM and 5 µM.
Consider `O=C(/C=C/c1cnc(N2CCN(S(=O)(=O)c3cccs3)CC2)s1)NO` [Example 4i], for which, in experiment [1], the IC50 came out at 0.65 µM. For the same molecule, the GI50 with MCF7 cells came out at 18 µM.
For `O=C(/C=C/c1cnc(N2CCN(S(=O)(=O)c3ccc(-c4ccccc4)cc3)CC2)s1)NO` [Example 4j] the same measures were 11.4 µM and 1.5 µM.
In the same order, the values of `CN(C)c1cccc2c(S(=O)(=O)N3CCN(c4ncc(/C=C/C(=O)NO)s4)CC3)cccc12` [Example 4k] are 318 µM and 4 µM.
For `O=C(/C=C/c1cnc(N2CCN(S(=O)(=O)c3ccc(F)cc3)CC2)s1)NO` [Example 4m] the same measures were 4.7 µM and 2.5 µM.
Regarding `O=C(NO)c1cnc(N2CCC(NS(=O)(=O)c3ccc4ccccc4c3)CC2)s1` [Example 5], the IC50 in experiment [1] came out at 0.05 µM. This molecule also registered a GI50 in the experiment with MCF7 cells of 6 µM.
With `O=C(NO)c1cnc(N2CCC(NS(=O)(=O)c3ccc(-c4ccccc4)cc3)CC2)s1` [Example 5b], halving of growth in the experiment on MCF7 cells (GI50) required 10 µM.
The same measure, in the same setting: the same measure for `Cc1ccc(S(=O)(=O)NC2CCN(c3ncc(C(=O)NO)s3)CC2)cc1` [Example 5d]: 15 µM; for `O=C(NO)c1cnc(N2CCC(CNS(=O)(=O)c3ccc(-c4ccccc4)cc3)CC2)s1` [Example 5e, 2-(4-{[(1,1′-biphenylsulfonyl)amino]methyl}piperidin-1-yl)-1,3-thiazole-5-carboxylic acid hydroxyamide]: 2 µM; for `O=C(NO)c1cnc(NC2CCN(S(=O)(=O)c3ccc4ccccc4c3)CC2)s1` [Example 5f, 2-{[1-(2-naphthylsulfonyl)piperidin-4-yl]amino}-1,3-thiazole-5-carboxylic acid hydroxyamide]: 20 µM.
Consider `Cc1ccc(S(=O)(=O)NC2C3CN(c4ncc(C(=O)NO)s4)CC32)cc1` (centres unmarked) [Example 5g, 2-(6-{[(4-methylphenyl)sulfonyl]amino}-3-azabicyclo[3.1.0]hex-3-yl)-1,3-thiazole-5-carboxylic acid hydroxyamide], for which the half-maximal inhibitory concentration (IC50) in experiment [1] turned out to be 0.6 µM. This molecule also displayed a GI50 in the experiment on MCF7 cells of 8 µM.
For `Cc1ccc(S(=O)(=O)N2CCCN(c3ncc(C(=O)NO)s3)C2)cc1` [Example 5h] the same measures were 0.67 µM and 3.5 µM.
Take `O=C(NO)c1cnc(N2CCN(Cc3ccccc3)CC2)s1` [Example 17, 2-(4-Benzyl-piperazin-1-yl)-thiazole-5-carboxylic acid hydroxyamide]: the GI50 with MCF7 cells is 4 µM.
Turning to `O=C(NO)c1cnc(N2CCN(CCc3ccccc3)CC2)s1` [Example 20, 2-(4-phenylethyl-piperazin-1-yl)-thiazole-5-carboxylic acid hydroxyamide], the IC50 in experiment [1] worked out at 118 µM.
Consider `O=C(CN1CCN(c2ncc(C(=O)NO)s2)CC1)c1ccccc1` [Example 20B, 2-(4-(2-oxo-2-phenylethyl)-piperazin-1-yl)-1,3-thiazole-5-carboxylic acid hydroxyamide], for which growth in the experiment on MCF7 cells was halved (GI50) at 4 µM.
As for `CC(=O)N1CCN(c2ncc(C(=O)NO)s2)CC1` [Example 21, 2-(4-acetyl-piperazin-1-yl)-thiazole-5-carboxylic acid hydroxamide], in experiment [1], the IC50 worked out at 2.75 µM.
As to `O=C(NO)c1cnc(N2CCN(C(=O)c3ccccc3)CC2)s1` [Example 22, 2-(4-benzoyl-piperazin-1-yl)-thiazole-5-carboxylic acid hydroxamide], the IC50 in experiment [1] was 3.5 µM. In addition, in the experiment on MCF7 cells, the GI50 was 40 µM.
For `O=C(NO)c1cnc(N2CCN(C(=O)Cc3ccccc3)CC2)s1` [Example 23, 2-(4-phenylacetyl-piperazin-1-yl)-thiazole-5-carboxylic acid hydroxamide] the same measures were 31.6 µM and 20 µM.
As for `O=C(NO)c1cnc(N2CCN(C(=O)CCc3c[nH]c4ccccc34)CC2)s1` [Example 23b, 2-[4-(3-{1H-indol-3-yl}propanoyl)-piperazin-1-yl]-1,3-thiazole-5-carboxylic acid hydroxyamide], the IC50 in experiment [1] came out at 0.87 µM. The molecule also registered a 50% growth inhibitory concentration (GI50) in the experiment on MCF7 cells of 30 µM.
In the same order, the values of `O=C(NO)c1cnc(CN2CCN(S(=O)(=O)c3ccc4ccccc4c3)CC2)s1` [Example 24] are 6.9 µM and 10 µM.
For `O=C(NO)c1cnc(C2CCN(S(=O)(=O)c3ccc(-c4ccccc4)cc3)CC2)s1` [Example 25, 2-[1-(1,1′-biphenyl-4-ylsulfonyl)piperidin-4-yl]-1,3-thiazole-5-carboxylic acid hydroxyamide] the same measures were 13.1 µM and 100 µM.

The values are drawn from US7345043B2, “Inhibitors of histone deacetylase” (Miikana Therapeutics, priority 2004, dated 2008).
